Reference: patent US11066414B2, “Cot modulators and methods of use thereof” (Gilead Sciences, Inc., priority 2015, dated 2021)
pEC50, pIC50: −log10 of the molar value. Like-named read-outs stand apart in the source and are kept apart here.

Legend:
TNFα = assay: Cot Monocyte TNFα Cell Based Assay
Human Cot = Human Cot (Homo sapiens (Human), UniProt P41279); assay: High Throughput Cot Biochemical Assay
[1] = IC50 HTRF, Cot HTRF (TR-FRET KinEASE) biochemical assay, 400 μM ATP
[2] = Homo sapiens, Monocyte, read-out: EC50 TNF, LPS-stimulated human monocytes, TNFα
[3] = IC50 HTRF, Cot HTRF (TR-FRET) biochemical assay
[4] = read-out: IC50 HTRF, Cot HTRF (TR-FRET) biochemical assay

Chain of Human Cot (P41279 30-397): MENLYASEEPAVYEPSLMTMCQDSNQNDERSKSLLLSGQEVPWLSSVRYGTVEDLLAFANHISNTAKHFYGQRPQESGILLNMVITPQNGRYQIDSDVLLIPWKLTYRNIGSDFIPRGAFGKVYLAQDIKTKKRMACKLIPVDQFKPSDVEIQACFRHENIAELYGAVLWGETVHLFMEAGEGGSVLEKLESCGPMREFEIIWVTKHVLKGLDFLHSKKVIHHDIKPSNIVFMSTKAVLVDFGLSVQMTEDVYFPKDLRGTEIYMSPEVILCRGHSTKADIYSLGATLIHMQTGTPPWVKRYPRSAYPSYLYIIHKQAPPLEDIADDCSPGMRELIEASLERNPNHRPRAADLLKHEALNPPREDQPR

| SMILES | pIC50 (Human Cot; [3]) | further results |
| --- | --- | --- |
| CCC(C)n1cc([C@@H](Nc2cc(Cl)c3ncc(C#N)c(NCC(C)(C)C)c3c2)c2cccc3c(=O)n(C)ccc23)nn1 (some centres unmarked) [Example 801, 6-(((1 S)-(1-(sec-butyl)-1H-1,2,3-triazol-4-yl)(2-methyl-1-oxo-1,2-dihydroisoquinolin-5-yl)methyl)amino)-8-chloro-4-(neopentylamino)quinoline-3-carbonitrile] |  | pEC50 (TNFα; Homo sapiens, Monocyte, read-out: EC50 TNF, LPS-stimulated human monocytes, TNFα TR-FRET): 7.51; pIC50 (Human Cot; [1]): 8.52 |
| Cc1nc(F)ccc1[C@H](Nc1cc(Cl)c2ncc(C#N)c(NCC(C)(C)C)c2c1)c1cn(C2(C(N)=O)CC2)nn1 [Example 477, (S)-1-(4-(((8-chloro-3-cyano-4-(neopentylamino)quinolin-6-yl)amino)(6-fluoro-2-methylpyridin-3-yl)methyl)-1H-1,2,3-triazol-1-yl)cyclopropane-1-carboxamide] | 8.70 | pEC50 (TNFα; [2]): 6.73 |
| CC1(C)COCC[C@@H]1Nc1c(C#N)cnc2c(C#N)cc(N[C@H](c3cn(C4(C(F)(F)F)CC4)nn3)c3cccc4ncsc34)cc12 [Example 475, 6-(((S)-benzo[d]thiazol-7-yl(1-(1-(trifluoromethyl)cyclopropyl)-1H-1,2,3-triazol-4-yl)methyl)amino)-4-(((S)-3,3-dimethyltetrahydro-2H-pyran-4-yl)amino)quinoline-3,8-dicarbonitrile] | 7.70 | pEC50 (TNFα; [2]): 6.59 |
| N#Cc1cnc2c(Cl)cc(N[C@H](c3c[nH]nn3)c3csc4c3CCN(C3COC3)C4)cc2c1Nc1cccc(Cl)c1F [Example 246, (S)-8-chloro-4-((3-chloro-2-fluorophenyl)amino)-6-(((6-(oxetan-3-yl)-4,5,6,7-tetrahydrothieno[2,3-c]pyridin-3-yl)(1H-1,2,3-triazol-4-yl)methyl)amino)quinoline-3-carbonitrile] | 8.22 | pEC50 (TNFα; [2]): 6.19 |
| CC(C)n1cc([C@@H](Nc2cc(Cl)c3ncc(C#N)c(Nc4ccc(F)c(Cl)c4)c3c2)c2ccnn2C)nn1 [Example 304, (S)-8-chloro-4-((3-chloro-4-fluorophenyl)amino)-6-(((1-isopropyl-1H-1,2,3-triazol-4-yl)(1-methyl-1H-pyrazol-5-yl)methyl)amino)quinoline-3-carbonitrile] | 8.22 | pEC50 (TNFα; [2]): 6.63 |
| COc1nccc2c([C@H](Nc3cc(C#N)c4ncc(C#N)c(NCC(C)(C)C)c4c3)c3cn(C4(C(F)(F)F)CC4)nn3)cccc12 [Example 812, (S)-6-(((1-methoxylsoquinolin-5-yl)(1-(1-(trifluoromethyl)cyclopropyl)-1H-1,2,3-triazol-4-yl)methyl)amino)-4-(neopentylamino)quinoline-3,8-dicarbonitrile] |  | pEC50 (TNFα; read-out: EC50 TNF, LPS-stimulated human monocytes, TNFα TR-FRET): 7.17; pIC50 (Human Cot; read-out: IC50 HTRF, Cot HTRF (TR-FRET KinEASE) biochemical assay, 400 μM ATP): 8.30 |
| C[C@@H](Nc1c(C#N)cnc2c(Cl)cc(N[C@H](c3cn(C4CCN(C(C)(C)C)CC4)nn3)c3csc4c3CCN(C3COC3)C4)cc12)c1ccccc1 [Example 237] |  | pEC50 (TNFα; read-out: EC50 TNF, LPS-stimulated human monocytes, TNFα): 7.54; pIC50 (Human Cot; [4]): 9.00 |
| Cc1nc(F)ccc1[C@H](Nc1cc(C#N)c2ncc(C#N)c(NCC(C)(C)C)c2c1)c1cn(C2(C(N)=O)CC2)nn1 [Example 490, (S)-1-(4-(((3,8-dicyano-4-(neopentylamino)-quinolin-6-yl)amino)(6-fluoro-2-methylpyridin-3-yl)methyl)-1H-1,2,3-triazol-1-yl)cyclopropane-1-carboxamide] | 9.00 | pEC50 (TNFα; [2]): 6.00 |
| CC(C)(C)CNc1c(C#N)cnc2c(Cl)cc(N[C@H](c3cn(C4(C)CC4)nn3)c3cccc4ncsc34)cc12 [Example 434, (S)-6-((benzo[d]thiazol-7-yl(1-(1-methylcyclopropyl)-1H-1,2,3-triazol-4-yl)methyl)amino)-8-chloro-4-(neopentylamino)quinoline-3-carbonitrile] | 8.70 |  |
| Cn1ncc2c([C@H](Nc3cc(Cl)c4ncc(C#N)c(NCC(C)(C)C)c4c3)c3cn(C4CC4)nn3)cccc21 [Example 423, (S)-8-chloro-6-(((1-cyclopropyl-1H-1,2,3-triazol-4-yl)(1-methyl-1H-indazol-4-yl)methyl)amino)-4-(neopentylamino)-quinoline-3-carbonitrile] | 8.52 |  |
| CC(C)(CNc1c(C#N)cnc2c(C#N)cc(N[C@H](c3cn(C45CC(C4)C5)nn3)c3ccc(F)c4ncccc34)cc12)C(F)(F)F [Example 816, (S)-6-(((1-(bicyclo[1.1.1]pentan-1-yl)-1H-1,2,3-triazol-4-yl)(8-fluoroquinolin-5-yl)methyl)amino)-4-((3,3,3-trifluoro-2,2-dimethylpropyl)amino)quinoline-3,8-dicarbonitrile] |  | pIC50 (Human Cot; [1]): 9.00 |
| N#Cc1cnc2c(Cl)cc(N[C@H](c3cn(CCO)nn3)c3cnc(Cl)cc3Cl)cc2c1Nc1ccc(F)c(Cl)c1 [Example 330, (S)-8-chloro-4-((3-chloro-4-fluorophenyl)amino)-6-(((4,6-dichloropyridin-3-yl)(1-(2-hydroxy-ethyl)-1H-1,2,3-triazol-4-yl)methyl)-amino)quinoline-3-carbonitrile] | 7.23 |  |
| CC(C)n1cc([C@@H](Nc2cc(Cl)c3ncc(C#N)c(Nc4ccc(F)c(Cl)c4)c3c2)c2cncn2C)nn1 [Example 311, (S)-8-chloro-4-((3-chloro-4-fluorophenyl)amino)-6-(((1-isopropyl-1H-1,2,3-triazol-4-yl)(1-methyl-1H-imidazol-5-yl)methyl)amino)quinoline-3-carbonitrile] | 7.52 |  |
| Cn1ccc2c([C@H](Nc3cc(Cl)c4ncc(C#N)c(NCC(C)(C)C)c4c3)c3cn(C4(C(F)(F)F)CC4)nn3)cccc2c1=O [Example 618, (S)-8-chloro-6-(((2-methyl-1-oxo-1,2-dihydroisoquinolin-5-yl)(1-(1-(trifluoromethyl)cyclopropyl)-1H-1,2,3-triazol-4-yl)methyl)amino)-4-(neopentylamino)quinoline-3-carbonitrile] | 8.52 |  |
| Cn1ccc2c([C@H](Nc3cc(Cl)c4ncc(C#N)c(NCC(C)(C)C(F)(F)F)c4c3)c3cn(C4(C5CC5)CC4)nn3)cccc2c1=O [Example 783, (S)-6-(((1-([1,1′-bi(cyclopropan)]-1-yl)-1H-1,2,3-triazol-4-yl)(2-methyl-1-oxo-1,2-dihydroisoquinolin-5-yl)methyl)amino)-8-chloro-4-((3,3,3-trifluoro-2,2-dimethylpropyl)amino)quinoline-3-carbonitrile] | 8.70 |  |
| Cn1cc(C(Nc2cc(Cl)c3ncc(C#N)c(Nc4ccc(F)c(Cl)c4)c3c2)c2cn(C3CCN(C(C)(C)C)CC3)nn2)nn1 (centres unmarked) [Example 399, 6-(((1-(1-(tert-butyl)piperidin-4-yl)-1H-1,2,3-triazol-4-yl)(1-methyl-1H-l, 2,3-triazol-4-yl)methyl)amino)-8-chloro-4-((3-chloro-4-fluorophenyl)-amino)quinoline-3-carbonitrile] |  | pIC50 (Human Cot; [4]): 7.24 |
| CC(C)(C)N1CCC(n2cc([C@@H](Nc3cc(Cl)c4ncc(C#N)c(NC5CCCCC5)c4c3)c3cccnc3)nn2)CC1 [Example 287, (S)-6-(((1-(1-(tert-butyl)piperidin-4-yl)-1H-1,2,3-triazol-4-yl)(pyridin-3-yl)methyl)amino)-8-chloro-4-(cyclohexylamino)quinoline-3-carbonitrile] |  | pIC50 (Human Cot; [4]): 7.70 |
| CCc1ncccc1[C@H](Nc1cc(Cl)c2ncc(C#N)c(NCC(C)(C)C)c2c1)c1cn(C2(C(F)F)CC2)nn1 [Example 604, (S)-8-chloro-6-(((1-(1-(difluoromethyl)cyclo-propyl)-1H-1,2,3-triazol-4-yl)(2-ethylpyridin-3-yl)methyl)amino)-4-(neopentylamino)-quinoline-3-carbonitrile] | 8.52 |  |
| N#Cc1cnc2c(Cl)cc(N[C@H](c3cn(C4CCNCC4)nn3)c3cccs3)cc2c1Nc1ccc(F)c(Cl)c1 [Example 388, (R)-8-chloro-4-((3-chloro-4-fluoro-phenyl)amino)-6-(((1-(piperidin-4-yl)-1H-1,2,3-triazol-4-yl)(thiophen-2-yl)methyl)amino)quinoline-3-carbonitrile] | 8.00 |  |
| CC(C)(C)CNc1c(C#N)cnc2c(C#N)cc(N[C@H](c3cn(C4(C(F)(F)F)CC4)nn3)c3cccc4ncsc34)cc12 [Example 66, (S)-6-((benzo[d]thiazol-7-yl(1-(1-(trifluoromethyl)cyclopropyl)-1H-1,2,3-triazol-4-yl)methyl)amino)-4-(neopentylamino)quinoline-3,8-dicarbonitrile] | 8.52 |  |
| CC(C)(C)CNc1c(C#N)cnc2c(C#N)cc(N[C@H](c3cn(C4CC4)nn3)c3cccc4ncccc34)cc12 [Example 467, (S)-6-(((1-cyclopropyl-1H-1,2,3-triazol-4-yl)(quinolin-5-yl)methyl)amino)-4-(neopentylamino)quinoline-3,8-dicarbonitrile] | 8.70 |  |
| Cc1nc(F)ccc1[C@H](Nc1cc(Cl)c2ncc(C#N)c(NCC(C)(C)C)c2c1)c1cn(C2(C(N)=O)CCC2)nn1 [Example 478, (S)-1-(4-(((8-chloro-3-cyano-4-(neopentylamino)quinolin-6-yl)amino)(6-fluoro-2-methylpyridin-3-yl)methyl)-1H-1,2,3-triazol-1-yl)cyclobutane-1-carboxamide] | 9.00 |  |
| N#Cc1cnc2c(Cl)cc(N[C@H](c3cn(C4CCNCC4)nn3)c3ccc(Cl)s3)cc2c1Nc1ccc(F)c(Cl)c1 [Example 386, (R)-8-chloro-4-((3-chloro-4-fluoro-phenyl)amino)-6-(((5-chlorothiophen-2-yl)(1-(piperidin-4-yl)-1H-1,2,3-triazol-4-yl)methyl)amino)quinoline-3-carbonitrile] | 7.44 |  |
| CC(C)(C)OC(=O)N1CCC(n2cc([C@@H](Nc3cc(Cl)c4ncc(C#N)c(Nc5ccc(F)c(Cl)c5)c4c3)c3ccsc3)nn2)CC1 [Example 394, tert-butyl (S)-4-(4-(((8-chloro-4-((3-chloro-4-fluorophenyl)amino)-3-cyanoquinolin-6-yl)amino)(thiophen-3-yl)methyl)-1H-1,2,3-triazol-1-yl)piperidine-1-carboxylate] | 6.83 |  |
